US7582725B2, “Agents, which inhibit apoptosis in cells that are involved in wound healing” (Dermatools Biotech GmbH, priority 2001, dated 2009)

Columns and labels:
Type in all cases: cell-based
MRC-5 fibroblasts [1] = experiment: Tension-dependent apoptosis of MRC-5 fibroblasts in collagen matrices (relaxed), DAPI staining; settings: relaxed collagen matrix
Procedure: 2×10^5 cells are seeded in each collagen matrix. For this purpose, 100 μl of the cell suspension (the appropriate cell titer is adjusted after the trypsinization in serum-free DMEM) are introduced into 1.5 ml reaction vessels pre-equilibrated at 37° C., 100 μl of the neutralized collagen solution are added, and the resulting solution is incubated at 37° C. for 4 min. The collagen concentration is 1.5 mg/ml. The cell/collagen suspension is seeded in 24-well cell culture plates or in 3.5 cm culture dishes. The matrix is polymerized at 37° C. for 60 min.
The matrices are covered with a layer of culture medium (DMEM+10% FCS+50 μg/ml ascorbic acid) and cultivated in an incubator at 37° C. and 8.5% by volume CO2 in a water vapor-saturated air atmosphere for 24 h.
The adherent matrix is cautiously detached with a spatula from the substrate and “floats” in the culture medium without contact with the substrate. The tension is abolished. The cultivation takes place for the period stated in each case.
The cells are cultivated as stated in example 11. Day “0” corresponds to the time after 24 h cultivation with ascorbic acid-containing medium before further cultivation under tensioned or relaxed conditions. After the stated times, the cell/collagen matrix is fixed in 4% (w/v) paraformaldehyde in PBS, followed by DAPI staining. […]

MRC-5 fibroblasts [2] = experiment: Incubation of fibroblasts with anti-apoptotic peptides: TSP-1 induced apoptosis, DAPI staining; settings: 24 h; for Inhibition index [%]: 100−(measured apoptosis index*100/control apoptosis index), 1 μg/ml TSP-1 + peptide 1 mM; for Apoptosis index [%]: static, fresh medium with 1 μg/ml TSP-1 + peptide 1 mM, 3 independent experiments, average ± SD
Procedure: The cells are cultivated under static culture conditions as in example 1/variant 1B1. The cells are seeded in the appropriate culture vessels (e.g. 24-well plate/0.5 ml per well) and employed for the test 3 days after complete confluence is reached. The cells are provided with new medium: • (a) fresh culture medium [basic rate of apoptosis] • (b) fresh culture medium with 1 μg/ml TSP-1 [apoptosis-inducing substance; control] • (c) culture medium (b)+peptide of SEQ ID NO 1; 1 mM • (d) culture medium (b)+peptide of SEQ ID NO 2; 1 mM • (e) culture medium (b)+peptide of SEQ ID NO 3; 1 mM • (f) culture medium (b)+peptide of SEQ ID NO 4; 1 mM • (g) culture medium (b)+peptide of SEQ ID NO 7; 1 mM • (h) culture medium (b)+peptide of SEQ ID NO 8; 1 mM • (i) culture medium (b)+peptide of SEQ ID NO 9; 1 mM • (j) culture medium (b)+peptide of SEQ ID NO 10; 1 mM • (k) culture medium (b)+peptide of SEQ ID NO 11; 1 mM • (l) culture medium (b)+peptide of SEQ ID NO 5; 1 mM • (m) culture medium (b)+peptide of SEQ ID NO 6; 1 mM
After incubation under culture conditions (example 1) for 24 h, the cells are fixed, stained with DAPI and examined morphologically under the fluorescence microscope. The apoptotic cells and the total number of cells are determined, and the apoptosis index is calculated (percent of apoptotic cells). The data from 3 independent experiments are indicated in the following table, indicating the averages and the standard deviation.
The inhibition index of the peptides employed is calculated as follows:
Inhibition index [%]=100−(measured apoptosis index* 100/control apoptosis index)

MRC-5 fibroblasts [3] = experiment: Rate of apoptosis of statically cultivated MRC-5 fibroblasts, DAPI staining; settings: for Apoptosis [%]: static, 24 h, substance in fresh medium, or conditioned medium alone
Procedure: The MRC-5 cell line used is seeded in ungelatinized cell culture vessels. The subsequent cultivation takes place in an incubator at 37° C. and 5% by vol. CO2 in a water vapor-saturated atmosphere. The culture medium is changed every second to third day and, after confluence is reached, the cells are passaged with a division rate from 1:5 to 1:10.
(§1) The culture supernatant from a Petri dish is aspirated off, and the cell lawn is fixed with 1 ml of formaldehyde solution on ice for 15 minutes, washed twice with 2 ml of PBS, treated with 0.5 ml of DAPI solution for 15 minutes, washed with PBS and evaluated under the fluorescence microscope. The UV filter set and a 20× or 40× objective are used. 500-1 000 cells are selected at random, and the cells with apoptotic nuclei are counted.
The apoptosis index is calculated by the following formula: […]
The used culture medium from a confluent MRC-5 fibroblast culture is removed, and the cell lawn is washed once with culture medium and cultivated under the stated conditions for 24 h.
The used culture medium from a confluent culture is removed, and the cell lawn is washed once with culture medium and cultivated under the stated conditions for 24 h.

MRC-5 fibroblasts [4] = experiment: Rate of apoptosis of dynamically cultivated MRC-5 fibroblasts (cone and plate shear apparatus), DAPI staining
Procedure: The fibroblasts are initially cultivated under static conditions until confluence is reached. This is followed by cultivation under dynamic conditions in the cone and plate shear apparatus (after Bussolori et al. (1982) Rev. Sci. Instrum. 53, 1851-1854) for 24 h.
This is done by precultivation of the cells initially in gelatinized culture dishes (◯=35 mm) with 0.15 ml/cm^2 culture medium and then further cultivation under turbulent or laminar flow conditions in the cone and plate shear apparatus for a maximum of 24 h. The flow conditions result from the angle of the cone. The flow over the cells is turbulent at a cone angle of 5° and is laminar at a cone angle of 0.5°.
Before use, the cone and plate shear apparatus is cleaned with a soft cloth and 70% (v/v) ethanol, the cone is sterilized and the apparatus is equilibrated at 37° C. in a heating cabinet. […]
as §1, with “The UV filter set and a 20× or 40× objective are used.” left out, “counted. […]” for “counted.”

CO[C@@H]1C(=O)O[C@H](C)[C@H](C)/C=C(\C)C[C@H](C)C(=O)N[C@@H](C)C(=O)N(C)[C@H](Cc2c[nH]c3ccccc23)C(=O)N[C@H]1c1ccc(O)cc1 [chondramide A, reference compound]
Apoptosis [%] (MRC-5 fibroblasts [1]; Example 14, 1 μM for 1 h before detachment, 8 h further cultivation): 1.0 ± 0.2%

K-R-A-Y-V-V-M-W-K-K (KRAYVVMWKK) [SEQ ID NO 5]
Inhibition index [%] (MRC-5 fibroblasts [2]): 90.1 ± 4.9% | Apoptosis index [%] (MRC-5 fibroblasts [2]): 0.42 ± 0.21%

K-R-E-Y-V-V-M-W-K-K (KREYVVMWKK) [SEQ ID NO 6]
Inhibition index [%] (MRC-5 fibroblasts [2]): 94.4 ± 4.2% | Apoptosis index [%] (MRC-5 fibroblasts [2]): 0.24 ± 0.18%

R-A-Y-V-V-M (RAYVVM) [SEQ ID NO 1]
Inhibition index [%] (MRC-5 fibroblasts [2]): 71.4 ± 6.8% | Apoptosis index [%] (MRC-5 fibroblasts [2]): 1.21 ± 0.29%

R-D-Y-V-V-M (RDYVVM) [SEQ ID NO 11]
Inhibition index [%] (MRC-5 fibroblasts [2]): 38.9 ± 16.7% | Apoptosis index [%] (MRC-5 fibroblasts [2]): 2.66 ± 0.71%

R-E-Y-V-V-M (REYVVM) [SEQ ID NO 4]
Inhibition index [%] (MRC-5 fibroblasts [2]): 80.4 ± 7.0% | Apoptosis index [%] (MRC-5 fibroblasts [2]): 0.87 ± 0.32%

R-G-Y-V-V-M (RGYVVM) [SEQ ID NO 7]
Inhibition index [%] (MRC-5 fibroblasts [2]): 53.7 ± 13.9% | Apoptosis index [%] (MRC-5 fibroblasts [2]): 2.00 ± 0.59%

R-M-Y-V-V-M (RMYVVM) [SEQ ID NO 8]
Inhibition index [%] (MRC-5 fibroblasts [2]): 42.8 ± 6.9% | Apoptosis index [%] (MRC-5 fibroblasts [2]): 2.46 ± 0.29%

R-N-Y-V-V-M (RNYVVM) [SEQ ID NO 10]
Inhibition index [%] (MRC-5 fibroblasts [2]): 13.5 ± 16.2% | Apoptosis index [%] (MRC-5 fibroblasts [2]): 3.70 ± 1.11%

R-T-Y-V-V-M (RTYVVM) [SEQ ID NO 9]
Inhibition index [%] (MRC-5 fibroblasts [2]): 25.4 ± 11.8% | Apoptosis index [%] (MRC-5 fibroblasts [2]): 3.19 ± 0.50%

R-W-Y-V-V-M (RWYVVM) [SEQ ID NO 2]
Inhibition index [%] (MRC-5 fibroblasts [2]): 53.7 ± 6.8% | Apoptosis index [%] (MRC-5 fibroblasts [2]): 2.00 ± 0.29%

R-Y-Y-V-V-M (RYYVVM) [SEQ ID NO 3]
Inhibition index [%] (MRC-5 fibroblasts [2]): 65.3 ± 0.9% | Apoptosis index [%] (MRC-5 fibroblasts [2]): 1.45 ± 0.04%

thrombospondin 1 [TSP-1]
Apoptosis [%] (MRC-5 fibroblasts [3]; Example 6): 5.6 ± 0.2% | Apoptosis [%] (MRC-5 fibroblasts [3]; Example 7): 5.6 ± 0.2% | Effect on apoptosis of statically cultivated fibroblasts (in words) (MRC-5 fibroblasts [3]; static culture): increase in spontaneous apoptosis | Apoptosis [%] (MRC-5 fibroblasts [4]; dynamic cultivation, 24 h, conditioned medium alone or fresh medium + TSP-1): 0.4 ± 0.1% | Effect on apoptosis of dynamic fibroblast cell culture (in words) (MRC-5 fibroblasts [4]; dynamic culture): no effect on apoptosis | Apoptosis [%] (MRC-5 fibroblasts [1]; Example 13, DMEM/FCS + substance, 24 h, antibodies 50 μg/ml, Tsp1 20 μg/ml): 10.5 ± 0.5%
